Experimental findings from patent US9399649B2, “Compounds for treating spinal muscular atrophy” (PTC Therapeutics Inc., priority 2012, dated 2016) are described below.

Series [1] relates to Smn protein. In words: Smn protein assay in cultured cells (SMN HTRF). Type of series: cell-based, human. The conditions noted are these: SMA patient fibroblast cells (GM03813), 48 hours; for EC1.5x for Smn protein expression: 7-point concentration curve, concentration producing 1.5 times Smn protein vs DMSO vehicle; for maximum fold (Fold) increase of Smn protein: 7-point concentration data, relative to vehicle control. The method in brief:
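SMA patient fibroblasts, 5,000 per well in DMEM-10% FBS, exposed 48 h at 37° C. to a 7-point, 3.16-fold compound series in triplicate. RIPA lysates read by SMN HTRF (665/620 nm, overnight at room temperature); ΔF over blank expressed as fold of vehicle.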

The test system of series [2] is full length SMN2 minigene mRNA containing SMN2 exon 7. Put plainly: SMN2 minigene mRNA splicing RT-qPCR assay in cultured cells. The conditions noted are these: Homo sapiens, HEK293-H; HEK293H cells stably transfected with SMN2-A minigene, 24 hours, 7-point concentration curve; concentration giving 1.5-fold full length SMN2 mRNA vs vehicle; read-out: EC1.5x for production of full length SMN2 mRNA. Type of series: cell-based, human. In a few lines: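 HEK293H cells stably carrying SMN2-A minigene treated 24 h (37 °C) with compound, 7-point 3.16-fold dilution, duplicates. Multiplex RT-qPCR on lysate with exon 7/luciferase primers and exon 7–8 junction probe (minigene-specific). Full-length transcript normalised to GAPDH by modified ΔΔCt, expressed relative to vehicle-treated cells.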

Structures are written as SMILES. Some results are limits rather than exact numbers.

Regarding `Cc1nc(Cl)cn2cc(-c3cc4ccc(N5C[C@@H](C)N[C@@H](C)C5)cc4c(=O)o3)nc12` [Cpd 110, 3-(6-chloro-8-methylimidazo[1,2-a]pyrazin-2-yl)-7-[(3R,5S)-3,5-dimethylpiperazin-1-yl]-1H-isochromen-1-one], the melting point was in the range of 261 to 266 °C. Besides, in series [1], the “EC1.5x for Smn protein expression” value was “*** (an EC1.5× between >0.3 nM and ≦1 nM is indicated by three stars (***))”; the “maximum fold (Fold) increase of Smn protein” value (“maximum fold (Fold) increase” below) was “**** (a fold increase between >1.5 and ≦1.65 is indicated by four stars (****))”. The EC (1.5-fold) in series [2] was 0.3 to 1 µM.

`Cc1nc2ccc(-c3cc4ccc(N5CCN(C6COC6)CC5)cc4c(=O)o3)cc2s1` [Cpd 107, 3-(2-methyl-1,3-benzothiazol-6-yl)-7-[4-(oxetan-3-yl)piperazin-1-yl]-1H-isochromen-1-one] had a melting point of 222 to 228 °C. In series [1], the “maximum fold (Fold) increase” value is “*** (a fold increase between >1.35 and ≦1.5 is indicated by three stars (***))”. In addition, in series [2], the EC (1.5-fold) lay within 0.3 to 1 µM.

As to `CCc1nc(C)cn2cc(-c3cc4ccc(N5CCN(C)CC5)cc4c(=O)o3)nc12` [Cpd 151, 3-(8-ethyl-6-methylimidazo[1,2-a]pyrazin-2-yl)-7-(4-methylpiperazin-1-yl)-1H-isochromen-1-one], the melting point lay within 229 to 234 °C. In addition, in series [1], the “EC1.5x for Smn protein expression” value is recorded as “**** (an EC1.5×≦0.3 nM is indicated by four stars (****))” and the “maximum fold (Fold) increase” value is recorded as “***** (a fold increase >1.65 is indicated by five stars (*****))”. The EC (1.5-fold) in series [2] was at most 0.1 µM.

With `C[C@H]1CN(c2ccc3cc(-c4ccc5c(c4)OCO5)oc(=O)c3c2)CCN1` [Cpd 40, 3-(1,3-benzodioxol-5-yl)-7-[(3S)-3-methylpiperazin-1-yl]-1H-isochromen-1-one], the melting point is 248 to 250 °C. Further, the “maximum fold (Fold) increase” value in series [1] was “* (A maximum fold increase of ≦1.2 is indicated by one star (*))”. Moreover, the EC (1.5-fold) in series [2] is 0.3 to 1 µM.

Regarding `Cc1cn2cc(-c3cc4ccc(C5=CCNCC5)cc4c(=O)o3)nc2c(C)n1` [Cpd 88, 3-(6,8-dimethylimidazo[1,2-a]pyrazin-2-yl)-7-(1,2,3,6-tetrahydropyridin-4-yl)-1H-isochromen-1-one], the melting point is 266 °C (dec.). Also, in series [1], the “EC1.5x for Smn protein expression” value was “**** (an EC1.5×≦0.3 nM is indicated by four stars (****))”; the “maximum fold (Fold) increase” value is “**** (a fold increase between >1.5 and ≦1.65 is indicated by four stars (****))”. Further, in series [2], the EC (1.5-fold) was at most 0.1 µM.

Compound `Cc1cn2cc(-c3cc4ccc(N5CCN(C6COC6)CC5)cc4c(=O)o3)nc2c(C)n1` [Cpd 97, 3-(6,8-dimethylimidazo[1,2-a]pyrazin-2-yl)-7-[4-(oxetan-3-yl)piperazin-1-yl]-1H-isochromen-1-one] had a melting point of 294 to 296 °C. Besides, in series [1], the “maximum fold (Fold) increase” value was “*** (a fold increase between >1.35 and ≦1.5 is indicated by three stars (***))”. Further, the EC (1.5-fold) in series [2] lay within 1 to 3 µM.

For the compound `Cc1cn2cc(-c3cc4ccc(N5CCN(C(C)C)CC5)cc4c(=O)o3)nc2cn1` [Cpd 128, 3-(6-methylimidazo[1,2-a]pyrazin-2-yl)-7-[4-(propan-2-yl)piperazin-1-yl]-1H-isochromen-1-one], the melting point lay within 231 to 236 °C. For the same compound, in series [1], the “EC1.5x for Smn protein expression” value is on record as “**** (an EC1.5×≦0.3 nM is indicated by four stars (****))” and the “maximum fold (Fold) increase” value is “***** (a fold increase >1.65 is indicated by five stars (*****))”. Moreover, in series [2], the EC (1.5-fold) is at most 0.1 µM.

For `Cc1cn2cc(-c3cc4ccc(C5=CCN(C)CC5)cc4c(=O)o3)nc2c(C)n1` [Cpd 89, 3-(6,8-dimethylimidazo[1,2-a]pyrazin-2-yl)-7-(1-methyl-1,2,3,6-tetrahydropyridin-4-yl)-1H-isochromen-1-one], the melting point lay within 240 to 242 °C. In series [1], the “EC1.5x for Smn protein expression” value is “**** (an EC1.5×≦0.3 nM is indicated by four stars (****))”; the “maximum fold (Fold) increase” value was “**** (a fold increase between >1.5 and ≦1.65 is indicated by four stars (****))”. In addition, the EC (1.5-fold) in series [2] is at most 0.1 µM.

For the compound `CN1CCN(c2ccc3cc(-c4ccccn4)oc(=O)c3c2)CC1` [Cpd 4, 7-(4-methylpiperazin-1-yl)-3-(pyridin-2-yl)-1H-isochromen-1-one], the melting point was in the range of 174 to 176 °C. The “maximum fold (Fold) increase” value in series [1] is listed as “* (A maximum fold increase of ≦1.2 is indicated by one star (*))”. Also, in series [2], the EC (1.5-fold) was in the range of 3 to 30 µM.

For `COc1ccc(-c2cc3ccc(N4CCNCC4)cc3c(=O)o2)cc1OC` [Cpd 3, 3-(3,4-dimethoxyphenyl)-7-(piperazin-1-yl)-1H-isochromen-1-one], the melting point lay in the range of 142 to 143 °C. Moreover, in series [1], the “EC1.5x for Smn protein expression” value was “*** (an EC1.5× between >0.3 nM and ≦1 nM is indicated by three stars (***))”; the “maximum fold (Fold) increase” value is “**** (a fold increase between >1.5 and ≦1.65 is indicated by four stars (****))”. In addition, the EC (1.5-fold) in series [2] was at most 0.1 µM.

For `O=c1oc(-c2cn3ccccc3n2)cc2ccc(N3CCNCC3)cc12` [Cpd 26, 3-(imidazo[1,2-a]pyridin-2-yl)-7-(piperazin-1-yl)-1H-isochromen-1-one], the melting point is 248 °C (dec.). For the same compound, in series [1], the “maximum fold (Fold) increase” value is “* (A maximum fold increase of ≦1.2 is indicated by one star (*))”. In series [2], the EC (1.5-fold) fell in the range of 1 to 3 µM.

In the case of `O=c1oc(-c2cn3cccc(Cl)c3n2)cc2ccc(N3CCNCC3)cc12` [Cpd 59, 3-(8-chloroimidazo[1,2-a]pyridin-2-yl)-7-(piperazin-1-yl)-1H-isochromen-1-one], the melting point was in the range of 343 to 345 °C. In addition, the “maximum fold (Fold) increase” value in series [1] was “** (a fold increase between >1.2 and ≦1.35 is indicated by two stars (**))”. For the same compound, the EC (1.5-fold) in series [2] was 1 to 3 µM.

Take `Cc1cn2cc(-c3cc4ccc(C5=CCN(C6COC6)CC5)cc4c(=O)o3)nc2c(C)n1` [Cpd 98, 3-(6,8-dimethylimidazo[1,2-a]pyrazin-2-yl)-7-[1-(oxetan-3-yl)-1,2,3,6-tetrahydropyridin-4-yl]-1H-isochromen-1-one]: the melting point was 253 to 255 °C. For the same compound, in series [1], the “EC1.5x for Smn protein expression” value is “*** (an EC1.5× between >0.3 nM and ≦1 nM is indicated by three stars (***))”; the “maximum fold (Fold) increase” value is given as “***** (a fold increase >1.65 is indicated by five stars (*****))”. Also, the EC (1.5-fold) in series [2] was at most 0.1 µM.

In the case of `O=c1oc(-c2cc(F)cc(F)c2)cc2ccc(N3CCNCC3)cc12` [Cpd 14, 3-(3,5-difluorophenyl)-7-(piperazin-1-yl)-1H-isochromen-1-one], the melting point fell in the range of 200 to 202 °C. Further, the “maximum fold (Fold) increase” value in series [1] is “** (a fold increase between >1.2 and ≦1.35 is indicated by two stars (**))”. The EC (1.5-fold) in series [2] was in the range of 1 to 3 µM.

`CCN1CCN(c2ccc3cc(-c4cn5cc(C)ncc5n4)oc(=O)c3c2)C[C@H]1C` [Cpd 126, 7-[(3R)-4-ethyl-3-methylpiperazin-1-yl]-3-(6-methylimidazo[1,2-a]pyrazin-2-yl)-1H-isochromen-1-one] showed a melting point of 238 to 241 °C. Moreover, in series [1], the “EC1.5x for Smn protein expression” value is recorded as “**** (an EC1.5×≦0.3 nM is indicated by four stars (****))”; the “maximum fold (Fold) increase” value was “**** (a fold increase between >1.5 and ≦1.65 is indicated by four stars (****))”. Further, the EC (1.5-fold) in series [2] is at most 0.1 µM.

For `Cc1cn2cc(-c3cc4ccc(N5CCN(C6CCC6)CC5)cc4c(=O)o3)nc2c(C)n1` [Cpd 87, 7-(4-cyclobutylpiperazin-1-yl)-3-(6,8-dimethylimidazo[1,2-a]pyrazin-2-yl)-1H-isochromen-1-one], the melting point lay in the range of 279 to 281 °C. Further, in series [1], the “EC1.5x for Smn protein expression” value is “**** (an EC1.5×≦0.3 nM is indicated by four stars (****))”; the “maximum fold (Fold) increase” value is “**** (a fold increase between >1.5 and ≦1.65 is indicated by four stars (****))”. Further, in series [2], the EC (1.5-fold) was at most 0.1 µM.

Consider `C[C@H]1CN(c2ccc3cc(-c4cccc(O)c4)oc(=O)c3c2)CCN1` [Cpd 44, 3-(3-hydroxyphenyl)-7-[(3S)-3-methylpiperazin-1-yl]-1H-isochromen-1-one], for which the melting point was 256 to 258 °C. Further, the “maximum fold (Fold) increase” value in series [1] was “** (a fold increase between >1.2 and ≦1.35 is indicated by two stars (**))”. Also, the EC (1.5-fold) in series [2] was in the range of 3 to 30 µM.

Take `Cc1nc2ccc(-c3cc4ccc(N5CCN(C(C)C)CC5)cc4c(=O)o3)cc2s1` [Cpd 105, 3-(2-methyl-1,3-benzothiazol-6-yl)-7-[4-(propan-2-yl)piperazin-1-yl]-1H-isochromen-1-one]: the melting point was 222 to 228 °C. Further, the “maximum fold (Fold) increase” value in series [1] was “** (a fold increase between >1.2 and ≦1.35 is indicated by two stars (**))”. Also, the EC (1.5-fold) in series [2] was 0.1 to 0.3 µM.

As to `Cc1cn2cc(-c3cc4ccc(N5CCN(C6CC6)CC5)cc4c(=O)o3)nc2c(C)n1` [Cpd 84, 7-(4-cyclopropylpiperazin-1-yl)-3-(6,8-dimethylimidazo[1,2-a]pyrazin-2-yl)-1H-isochromen-1-one], the melting point was 260 °C (dec.). In series [1], the “EC1.5x for Smn protein expression” value was “*** (an EC1.5× between >0.3 nM and ≦1 nM is indicated by three stars (***))”; the “maximum fold (Fold) increase” value is recorded as “***** (a fold increase >1.65 is indicated by five stars (*****))”. Further, the EC (1.5-fold) in series [2] fell in the range of 0.1 to 0.3 µM.
